Experimental data from the SangsterLogP compilation.

Row | SMILES | logP
1 | CCCc1ccc2oc3cc(C(=O)O)ccc3c(=O)c2c1 | 4.59
2 | CCSc1ccc2oc3cc(-c4nnn[nH]4)ccc3c(=O)c2c1 | 4.06
3 | CCCCOc1ccc2oc3cc(-c4nnn[nH]4)ccc3c(=O)c2c1 | 4.69
4 | CCSc1ccc2oc3cc(C(=O)O)ccc3c(=O)c2c1 | 4.36
5 | CCOc1ccc2oc3cc(C(=O)O)ccc3c(=O)c2c1 | 3.99
6 | CCCCOc1ccc2oc3cc(C(=O)O)ccc3c(=O)c2c1 | 5
7 | CCCC(=O)OCCOc1ccc2oc3cc(C(=O)O)ccc3c(=O)c2c1 | 4
8 | COc1ccc2oc3cc(C(=O)O)ccc3c(=O)c2c1 | 3.37
9 | COc1ccc2oc3cc(-c4nnn[nH]4)ccc3c(=O)c2c1 | 3.15

The remaining lines, values ahead:

Row | logP | SMILES
10 | 3.12 | COCc1ccc2oc3cc(C(=O)O)ccc3c(=O)c2c1
11 | 2.31 | O=c1c2ccc(-c3nnn[nH]3)cc2oc2ccc(OCCO)cc12
12 | 2.86 | O=c1c2ccccc2oc2cc(-c3nn[nH]n3)ccc12
13 | 3.67 | CCOc1ccc2oc3cc(-c4nn[nH]n4)ccc3c(=O)c2c1
14 | 2.3 | Nc1ccc2oc3cc(C(=O)O)ccc3c(=O)c2c1
15 | 2.46 | O=C(O)c1ccc2c(=O)c3cc(OCCO)ccc3oc2c1
16 | 2.52 | N#Cc1ccc2oc3ccc(-c4nnn[nH]4)cc3c(=O)c2c1
17 | 2.83 | O=c1c2ccc(-c3nnn[nH]3)cc2oc2ccc([N+](=O)[O-])cc12
18 | 3.73 | CCCC(=O)OCCOc1ccc2oc3cc(-c4nnn[nH]4)ccc3c(=O)c2c1
19 | 2.18 | Nc1ccc2oc3cc(-c4nnn[nH]4)ccc3c(=O)c2c1
20 | 3.12 | O=C(O)c1ccc2c(=O)c3cc([N+](=O)[O-])ccc3oc2c1
21 | 2.62 | O=C(O)c1ccc2c(=O)c3cc(OCCOCCO)ccc3oc2c1
22 | 2.87 | CC(O)COc1ccc2oc3cc(C(=O)O)ccc3c(=O)c2c1 (configuration not stated)
